Molecules are shown by their SMILES. Where a name gives a salt, the structure may show the parent alone.

The target in the first assay is recombinant human enteropeptidase (Homo sapiens (Human), UniProt P98073). Put plainly: Measurement of enteropeptidase inhibitory activity. The format is biochemical. The conditions noted are these: Dixon plot. Put shortly: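 Enzyme activity followed as reaction rate from fluorescence time course (ex 320 nm, em 405 nm) using Gly-Asp-Asp-Asp-Asp-Lys-β-naphthylamide substrate (0.5 mg/mL stock) in Tris-HCl pH 8.0. Ki obtained by Dixon plot from compound concentration, reciprocal rate and substrate Km.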
Chain of recombinant human enteropeptidase (P98073 whole entry): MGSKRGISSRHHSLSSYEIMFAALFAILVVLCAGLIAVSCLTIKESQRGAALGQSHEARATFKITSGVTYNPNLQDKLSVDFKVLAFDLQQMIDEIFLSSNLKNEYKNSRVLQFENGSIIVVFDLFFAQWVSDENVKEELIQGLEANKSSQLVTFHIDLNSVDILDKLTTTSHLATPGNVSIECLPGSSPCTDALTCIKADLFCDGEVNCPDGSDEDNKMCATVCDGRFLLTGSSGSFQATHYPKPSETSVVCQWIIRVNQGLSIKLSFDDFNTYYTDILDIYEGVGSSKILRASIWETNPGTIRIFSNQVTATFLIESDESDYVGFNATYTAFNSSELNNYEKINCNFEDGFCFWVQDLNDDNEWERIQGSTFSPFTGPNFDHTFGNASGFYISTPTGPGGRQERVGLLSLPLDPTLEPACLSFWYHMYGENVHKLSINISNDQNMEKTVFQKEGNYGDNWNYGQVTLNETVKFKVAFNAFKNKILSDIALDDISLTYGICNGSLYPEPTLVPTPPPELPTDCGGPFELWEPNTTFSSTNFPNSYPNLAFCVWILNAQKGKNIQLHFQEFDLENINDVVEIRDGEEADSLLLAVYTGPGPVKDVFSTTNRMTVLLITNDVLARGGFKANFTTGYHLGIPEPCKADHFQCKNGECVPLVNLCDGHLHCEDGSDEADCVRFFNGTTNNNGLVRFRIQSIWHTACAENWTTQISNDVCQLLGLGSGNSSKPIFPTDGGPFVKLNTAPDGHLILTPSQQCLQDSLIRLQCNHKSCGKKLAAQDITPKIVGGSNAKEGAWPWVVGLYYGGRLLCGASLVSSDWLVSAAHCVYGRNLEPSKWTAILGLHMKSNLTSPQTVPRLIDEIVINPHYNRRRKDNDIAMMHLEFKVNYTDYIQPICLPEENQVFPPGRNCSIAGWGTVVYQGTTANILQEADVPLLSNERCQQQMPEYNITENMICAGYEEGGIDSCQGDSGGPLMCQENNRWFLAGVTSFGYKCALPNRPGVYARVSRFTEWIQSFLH
Turning to `N=C(N)c1ccc(OC(=O)c2ccc(CCC(=O)N[C@@H](CCC(=O)O)C(=O)O)s2)c(F)c1` [Compound B-62], the Ki came out at 0.57 nM.
For `C=CCN(C(=O)CCc1ccc(C(=O)Oc2ccc(C(=N)N)cc2F)s1)[C@@H](CC(=O)O)C(=O)O` [Compound B-63, N-{3-[5-(4-amidino-2-fluorophenoxycarbonyl)thiophen-2-yl]propanoyl}-N-allyl-L-aspartic acid trifluoroacetic acid salt], the inhibitory constant (Ki) was determined as 0.55 nM.
With `CC(C)(Cc1ccc(C(=O)Oc2ccc(C(=N)N)cc2F)s1)C(=O)N[C@@H](CC(=O)O)C(=O)O` [Compound B-64, N-{3-[5-(4-amidino-2-fluorophenoxycarbonyl)thiophen-2-yl]-2,2-dimethylpropanoyl}-L-aspartic acid trifluoroacetic acid salt], the inhibition constant Ki worked out at 0.14 nM.
The same measure, in the same setting: as for `N=C(N)c1ccc(OC(=O)c2ccc(CCC(=O)N[C@@H](Cc3ccc(O)cc3)C(=O)O)s2)c(F)c1` [Compound B-65], the figure is 3.2 nM.
For the compound `N=C(N)c1ccc(OC(=O)c2ccc(CCC(=O)N[C@@H](CO)C(=O)O)s2)c(F)c1` [Compound B-66], the Ki amounted to 0.73 nM.
For `C/C(=C\c1nc(C(=O)Oc2ccc(C(=N)N)cc2)cs1)C(=O)N(CCCO)CC(=O)O` [Compound C-2], the Ki was found to be 5.67 nM.

The test system of a further assay is KK-A^y/JCL mice. The assay is described as follows: Evaluation of antidiabetic action (blood glucose level). The format is in vivo. The note with it: dose 5.6 mg/100 g mixed in feed CRF-1, after one week of dosing. From the text: Evaluation of Antidiabetic Action KK-A^y/JCL mice (male, 5- to 7-week-old, CLEA Japan, Inc.) known to spontaneously develop obese type 2 diabetes were purchased and, after one week of preliminary rearing period, grouped (6 per group) with the body weight and non-fasting blood glucose levels as indices. The animals were individually housed in a polycarbonate cage and allowed to drink water freely from a watering bottle. […] CRF-1 alone was given to the control group. After one week of dosing period, the blood (6 μL) was drawn from the tail vein of the animals, and the blood glucose level was measured by ACCU-CHEK Aviva (Roche Diagnostics K.K.). A significant difference from the control group was detected by Dunnett's multiple comparison test or Student's t-test (significance level less than 5%).
As for `CC(Cc1ccc(C(=O)Oc2ccc(C(=N)N)cc2)o1)C(=O)N[C@H](CC(=O)O)C(=O)O.O=C(O)C(F)(F)F` (stereo partly drawn) [A-28 hydrochloride], the “Mean blood glucose level” value turned out to be 219 mg/dL.
Still for that read-out and setting: to `CC(Cc1ccc(C(=O)Oc2ccc(C(=N)N)cc2)s1)C(=O)N[C@@H](CC(=O)O)C(=O)O.O=C(O)C(F)(F)F` (stereo partly drawn) [B-18 hydrochloride] belongs 217 mg/dL.
With `CC(Cc1ccc(C(=O)Oc2ccc(C(=N)N)cc2F)s1)C(=O)N[C@@H](CC(=O)O)C(=O)O.O=C(O)C(F)(F)F` (stereo partly drawn) [B-20 hydrochloride], the “Mean blood glucose level” value was found to be 197 mg/dL.
Still for that read-out and setting: as for `CC(Cc1ccc(C(=O)Oc2ccc(C(=N)N)cc2)s1)C(=O)N[C@H](CC(=O)O)C(=O)O.Cl` (stereo partly drawn) [B-23 hydrochloride], the figure is 198 mg/dL.
Same read-out and setting: as for `N=C(N)c1ccc(OC(=O)c2ccc(CCC(=O)N[C@@H](CC(=O)O)C(=O)O)s2)c(F)c1.O=C(O)C(F)(F)F` [B-32 hydrochloride], the figure is 249 mg/dL.

Still in this assay, the particulars now being: dose 16.8 mg/100 g mixed in feed CRF-1, after one week of dosing.
In the case of `CC(Cc1ccc(C(=O)Oc2ccc(C(=N)N)cc2)s1)C(=O)N[C@@H](CC(=O)O)C(=O)O.O=C(O)C(F)(F)F` (stereo partly drawn) [B-18 hydrochloride], the “Mean blood glucose level” value was determined as 138 mg/dL.

These data come from patent US8609715B2, “Heteroarylcarboxylic acid ester derivative” (Ajinomoto Co., Inc., priority 2009, dated 2013).
